Source: US5834431A, “Des-Arg^9 -BK antagonists” (Cortech, Inc., priority 1995, dated 1998)
Square brackets hold non-standard residues; d marks the D form. Peptide text beside a SMILES is read from it. * marks the point of attachment. Oic = O=C(O)[C@@H]1C[C@@H]2CCCC[C@@H]2N1; X1 = N=C(N)NCCC[C@@H](NC(=N)N)C(=O)*; dIgl = N[C@@H](C(=O)O)C1Cc2ccccc2C1; Gly(cPent) = N[C@H](C(=O)O)C1CCCC1; Igl = N[C@H](C(=O)O)C1Cc2ccccc2C1; Hyp = O=C(O)[C@@H]1C[C@@H](O)CN1; Tic = O=C(O)[C@@H]1Cc2ccccc2CN1; dTic = O=C(O)[C@H]1Cc2ccccc2CN1; 2Thi = N[C@@H](Cc1cccs1)C(=O)O

Columns and labels:
B1 receptor = biological target: T1, B1 receptor (Homo sapiens, UniProt P46663); test: Human B1 binding, IL-1b-treated IMR-90 membranes, 3H-des-Arg9-Kallidin; details: 0.5 nM 3H-des-Arg9-Kallidin, pIC50 = -log of molar IC50
T1 construct: Human lung fibroblasts IMR-90 cells were obtained from ATCC and propagated in DMEM media; host or cells: IMR-90 human lung fibroblasts, treated with interleukin 1b three hours before harvest; membranes
T1 sequence (P46663 1-353): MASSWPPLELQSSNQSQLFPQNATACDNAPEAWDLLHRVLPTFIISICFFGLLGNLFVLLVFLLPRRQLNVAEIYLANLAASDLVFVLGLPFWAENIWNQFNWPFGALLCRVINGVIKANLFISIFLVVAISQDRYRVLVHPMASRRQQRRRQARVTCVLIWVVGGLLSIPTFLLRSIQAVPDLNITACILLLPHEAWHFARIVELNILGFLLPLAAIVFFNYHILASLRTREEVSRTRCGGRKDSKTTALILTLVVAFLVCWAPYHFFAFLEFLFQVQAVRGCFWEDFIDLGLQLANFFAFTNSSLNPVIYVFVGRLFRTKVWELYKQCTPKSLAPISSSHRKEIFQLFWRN
Experimental: (§1) Human lung fibroblasts IMR-90 cells were obtained from ATCC and propagated in DMEM media in […] roller bottles until confluent. Three hours prior to harvesting, the cells were treated with Interleukin lb (200 pg/ml). Human BK2 clones were propagated in F12 media until confluent. Preparation of membranes for binding assays was carried out by scraping cells from roller bottles in ice cold PBS and centrifuging at 1000 ×g, at 4° C. for 15 minutes. The supernatant was discarded and pellet resuspended in Buffer A consisting of 25 mM TES(pH 6.8) with 2 uM 1,10-Phenanthroline, and centrifuged at 27,000 ×g for 15 min. this was then repeated. The final pellet was resuspended in Buffer B (Buffer A with 2 uM Captopril, 140 ug/Ml Bacitracin, 0.1%BSA), and stored in 1 ml aliquots, frozen at -20° C. until needed.
(§2) Binding assays were performed by incubating human clone membranes with 0.3 nM ^3 H-Bradykinin or IMR-90 membranes with 0.5 nM ^3 H-des-Arg^9 -Kallidin in the presence of the peptides in assay buffer (Buffer B with 1 mM Dithiotreitol), at room temperature, for 45 minutes. All test compound dilutions were in triplicate. Assays were harvested by quick filtration in a Tomtec Harvester 96, with ice cold wash buffer consisting of 10 mM Tris/HCl, pH 7.5, 100 mM NaCl, 0.02%BSA, onto Wallec printed glassfiber Filtermat "B", which had been pre-soaked with 0.1% PEI and previously air-dried.

B2 receptor [1] = biological target: T2, B2 receptor (Homo sapiens, UniProt P30411); test: Human B2 binding, human BK2 clone membranes, 3H-Bradykinin; details: 0.3 nM 3H-Bradykinin, i.a. = inactive; for IC50: read-out: Human Binding - pIC50 B2 (converted)
T2 construct: expressed in transfected cells
T2 sequence (P30411 1-391): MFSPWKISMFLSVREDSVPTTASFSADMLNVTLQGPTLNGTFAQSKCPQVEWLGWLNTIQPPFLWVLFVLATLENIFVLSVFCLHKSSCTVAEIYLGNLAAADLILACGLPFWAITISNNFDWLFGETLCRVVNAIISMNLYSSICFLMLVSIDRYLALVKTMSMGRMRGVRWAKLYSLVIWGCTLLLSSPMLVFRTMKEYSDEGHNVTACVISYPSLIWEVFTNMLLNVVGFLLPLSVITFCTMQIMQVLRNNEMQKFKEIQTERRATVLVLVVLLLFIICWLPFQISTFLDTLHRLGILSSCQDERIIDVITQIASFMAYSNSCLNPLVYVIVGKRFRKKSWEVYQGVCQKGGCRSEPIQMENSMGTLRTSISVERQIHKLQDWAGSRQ
Experimental: as §1
as §2, with “air-dried. Filtermats were counted in 9.5 mls Wallec Beta-Plate Scint, in Wallec 1450 MicroBeta Counter.” for “air-dried.”

B2 receptor [2] = biological target: T3, B2 receptor (Cavia porcellus, UniProt O70526); test: GPI binding B2; details: i.a. = inactive; for IC50: read-out: GPI Binding - pIC50 B2 (converted)
T3 construct: from tissue
T3 sequence (O70526 1-372): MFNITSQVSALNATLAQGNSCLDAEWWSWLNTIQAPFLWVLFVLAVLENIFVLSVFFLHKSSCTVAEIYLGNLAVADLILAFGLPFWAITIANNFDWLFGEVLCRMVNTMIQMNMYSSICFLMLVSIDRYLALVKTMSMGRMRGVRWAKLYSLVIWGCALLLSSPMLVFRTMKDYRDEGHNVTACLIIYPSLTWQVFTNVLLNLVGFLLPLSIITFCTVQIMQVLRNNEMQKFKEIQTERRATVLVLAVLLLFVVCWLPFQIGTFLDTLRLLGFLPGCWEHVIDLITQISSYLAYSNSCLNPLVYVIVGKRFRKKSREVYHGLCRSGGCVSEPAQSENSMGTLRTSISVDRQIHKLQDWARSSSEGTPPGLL

[3] = biological target: T4, BK1 (hypotensive response to desArg9BK) (Canis lupus familiaris, UniProt Q9BDQ5); test: In vivo inhibition of hypotensive response to desArg9BK in anaesthetized dogs; parameters: species or system Mongrel dogs; details: dog, infusion; dose of antagonist to inhibit hypotensive response to desArg9BK by 50%
T4 construct: Mongrel dogs of either sex, weight range 10-15 kg were used; from tissue; host or cells: whole anaesthetized mongrel dog (in vivo blood pressure)
T4 sequence (Q9BDQ5 1-350): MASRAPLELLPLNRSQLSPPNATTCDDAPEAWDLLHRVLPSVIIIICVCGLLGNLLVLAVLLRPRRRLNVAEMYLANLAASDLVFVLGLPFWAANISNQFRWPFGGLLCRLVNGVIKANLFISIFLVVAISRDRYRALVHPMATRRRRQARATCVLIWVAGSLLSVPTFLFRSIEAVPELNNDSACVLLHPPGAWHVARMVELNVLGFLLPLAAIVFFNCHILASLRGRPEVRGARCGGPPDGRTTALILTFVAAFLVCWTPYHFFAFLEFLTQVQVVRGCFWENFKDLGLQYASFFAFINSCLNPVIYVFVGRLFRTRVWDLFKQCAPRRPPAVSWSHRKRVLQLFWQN
Experimental: Mongrel dogs of either sex, weight range 10-15 kg were used. These were anaesthesized with pentobarbitone, 30 mg/kg i.v. and catheters placed in one femoral artery and both femoral veins for the recording of blood pressure and infusion and injection of compounds. […] After the end of the infusion of the highest dose of the antagonist compound, BK and des-Arg^9 -BK were injected at intervals for up to four hours.

## N=C(N)NCCC[C@@H](N)C(=O)N[C@@H](CCCNC(=N)N)C(=O)N1CCC[C@H]1C(=O)N1C[C@H](O)C[C@H]1C(=O)NCC(=O)N[C@H](C(=O)N[C@@H](CO)C(=O)N1Cc2ccccc2C[C@H]1C(=O)N[C@H](C(=O)O)C1CCCC1)C1CCCC1 [B9004, DArg-Arg-Pro-Hyp-Gly-Cpg-Ser-Tic-Cpg] (H-[dR]RP[Hyp]G[Gly(cPent)]S[Tic][Gly(cPent)]-OH)
B1 receptor
  IC50: 3.16 nM
B2 receptor [1]
  IC50: 1580 nM
B2 receptor [2]
  IC50: 6.31 µM

## N=C(N)NCCC[C@@H](N)C(=O)N[C@@H](CCCNC(=N)N)C(=O)N1CCC[C@H]1C(=O)N1C[C@H](O)C[C@H]1C(=O)NCC(=O)N[C@@H](Cc1cccs1)C(=O)N[C@@H](CO)C(=O)N1Cc2ccccc2C[C@H]1C(=O)N[C@H](C(=O)O)C1CCCC1 [B9006, DArg-Arg-Pro-Hyp-Gly-Thi-Ser-Tic-Cpg] (H-[dR]RP[Hyp]G[2Thi]S[Tic][Gly(cPent)]-OH)
B1 receptor
  IC50: 12.6 nM
B2 receptor [1]
  IC50: 631 nM
B2 receptor [2]
  IC50: 10 µM

## N=C(N)NCCC[C@@H](N)C(=O)N[C@@H](CCCNC(=N)N)C(=O)N1CCC[C@H]1C(=O)N1C[C@H](O)C[C@H]1C(=O)NCC(=O)N[C@@H](Cc1cccs1)C(=O)N[C@@H](CO)C(=O)N1Cc2ccccc2C[C@@H]1C(=O)N[C@H](C(=O)O)C1CCCC1 [B9068, DArg-Arg-Pro-Hyp-Gly-Thi-Ser-DTic-Cpg] (H-[dR]RP[Hyp]G[2Thi]S[dTic][Gly(cPent)]-OH)
B1 receptor
  IC50: 1.58 nM
B2 receptor [1]
  IC50: 2000 nM
B2 receptor [2]
  IC50: 7.94 µM

## CC(C)C[C@H](NC(=O)[C@@H]1CCCN1C(=O)[C@H](CO)NC(=O)[C@H](Cc1ccccc1)NC(=O)CNC(=O)[C@@H]1CCCN1C(=O)[C@@H]1CCCN1C(=O)[C@H](CCCNC(=N)N)NC(=O)[C@H](CCCCN)NC(=O)CNC(=N)N)C(=O)O [B9810]
B2 receptor [1]
  Human Binding - pIC50 B2: i.a
B2 receptor [2]
  GPI Binding - pIC50 B2: i.a

## CC(C)C[C@H](NC(=O)[C@H](NC(=O)[C@H](CO)NC(=O)[C@@H](NC(=O)CNC(=O)[C@@H]1C[C@@H](O)CN1C(=O)[C@@H]1CCCN1C(=O)[C@@H](N)CCCNC(=N)N)C1Cc2ccccc2C1)C1Cc2ccccc2C1)C(=O)O [B9814, Arg-Pro-Hyp-Gly-Igl-Ser-DIgl-Leu] (H-RP[Hyp]G[Igl]S[dIgl]L-OH)
B1 receptor
  IC50: 6.31 nM
B2 receptor [1]
  Human Binding - pIC50 B2: i.a
B2 receptor [2]
  GPI Binding - pIC50 B2: i.a

## CC(C)C[C@H](NC(=O)[C@H](NC(=O)[C@H](CO)NC(=O)[C@@H](NC(=O)CNC(=O)[C@@H]1C[C@@H](O)CN1C(=O)[C@@H]1CCCN1C(=O)[C@H](CCCNC(=N)N)NC(=O)[C@H](N)CCCNC(=N)N)C1Cc2ccccc2C1)C1Cc2ccccc2C1)C(=O)O [B9816, DArg-Arg-Pro-Hyp-Gly-Igl-Ser-DIgl-Leu] (H-[dR]RP[Hyp]G[Igl]S[dIgl]L-OH)
B1 receptor
  IC50: 1.26 nM
B2 receptor [1]
  IC50: 631 nM
B2 receptor [2]
  IC50: 2 µM

## N=C(N)NCCC[C@H](NC(=O)[C@@H](CCCNC(=N)N)NC(=N)N)C(=O)N1CCC[C@H]1C(=O)N1C[C@H](O)C[C@H]1C(=O)NCC(=O)N[C@@H](Cc1cccs1)C(=O)N[C@@H](CO)C(=O)N[C@@H](C(=O)N1[C@H](C(=O)O)C[C@@H]2CCCC[C@@H]21)C1Cc2ccccc2C1 [B9826, Gun- DArg-Arg-Pro-Hyp-Gly-Thi-Ser-DIgl-Oic] (X1-RP[Hyp]G[2Thi]S[dIgl][Oic]-OH)
B1 receptor
  IC50: 0.126 nM
B2 receptor [1]
  IC50: 7.94 nM
B2 receptor [2]
  IC50: 0.0794 µM

## N=C(N)NCCC[C@@H](N)C(=O)N[C@@H](CCCNC(=N)N)C(=O)N1CCC[C@H]1C(=O)N1C[C@H](O)C[C@H]1C(=O)NCC(=O)N[C@H](C(=O)N[C@@H](CO)C(=O)N1Cc2ccccc2C[C@@H]1C(=O)N[C@H](C(=O)O)C1CCCC1)C1Cc2ccccc2C1 [B9840, DArg-Arg-Pro-Hyp-Gly-Igl-Ser-DTic-Cpg] (H-[dR]RP[Hyp]G[Igl]S[dTic][Gly(cPent)]-OH)
B1 receptor
  IC50: 0.794 nM
B2 receptor [1]
  IC50: 631 nM
B2 receptor [2]
  GPI Binding - pIC50 B2: i.a

## N=C(N)NCCC[C@H](NC(=O)[C@@H](N)CCCCN)C(=O)N1CCC[C@H]1C(=O)N1C[C@H](O)C[C@H]1C(=O)NCC(=O)N[C@H](C(=O)N[C@@H](CO)C(=O)N1Cc2ccccc2C[C@@H]1C(=O)N[C@H](C(=O)O)C1CCCC1)C1Cc2ccccc2C1 [B9842, Lys-Arg-Pro-Hyp-Gly-Igl-Ser-DTic-Cpg] (H-KRP[Hyp]G[Igl]S[dTic][Gly(cPent)]-OH)
B1 receptor
  IC50: 0.251 nM
B2 receptor [1]
  IC50: 631 nM
B2 receptor [2]
  GPI Binding - pIC50 B2: i.a.

## N=C(N)NCCC[C@H](NC(=O)[C@H](CCCCN)NC(=O)[C@@H](N)CCCCN)C(=O)N1CCC[C@H]1C(=O)N1C[C@H](O)C[C@H]1C(=O)NCC(=O)N[C@H](C(=O)N[C@@H](CO)C(=O)N[C@@H](C(=O)N1[C@H](C(=O)O)C[C@@H]2CCCC[C@@H]21)C1Cc2ccccc2C1)C1Cc2ccccc2C1 [B9858, Lys- Lys-Arg-Pro-Hyp-Gly-Igl-Ser-DIgl-Oic]
[3]
  BK1 ED50: 0.03 ± 0.01 µg/kg/min
B2 receptor [1]
  IC50: 20 nM
B2 receptor [2]
  IC50: 0.126 µM
